Twelve compounds from patent publication US20140187548A1, “6 SUBSTITUTED IMIDAZOPYRAZINES FOR USE AS MPS-1 AND TKK INHIBITORS IN THE TREATMENT OF HYPERPROLIFERATIVE DISORDERS” (BAYER INTELLECTUAL PROPERTY GMBH, priority 2010, published 2014) can be followed below.

In this assay the target is T1, human kinase Mps-1 (Homo sapiens, UniProt P33981).
T1 construct: N-terminally GST-tagged human full length recombinant Mps-1 kinase; GST (N); purchased Invitrogen, Karslruhe, Germany PV4071
T1 sequence (P33981 1-857): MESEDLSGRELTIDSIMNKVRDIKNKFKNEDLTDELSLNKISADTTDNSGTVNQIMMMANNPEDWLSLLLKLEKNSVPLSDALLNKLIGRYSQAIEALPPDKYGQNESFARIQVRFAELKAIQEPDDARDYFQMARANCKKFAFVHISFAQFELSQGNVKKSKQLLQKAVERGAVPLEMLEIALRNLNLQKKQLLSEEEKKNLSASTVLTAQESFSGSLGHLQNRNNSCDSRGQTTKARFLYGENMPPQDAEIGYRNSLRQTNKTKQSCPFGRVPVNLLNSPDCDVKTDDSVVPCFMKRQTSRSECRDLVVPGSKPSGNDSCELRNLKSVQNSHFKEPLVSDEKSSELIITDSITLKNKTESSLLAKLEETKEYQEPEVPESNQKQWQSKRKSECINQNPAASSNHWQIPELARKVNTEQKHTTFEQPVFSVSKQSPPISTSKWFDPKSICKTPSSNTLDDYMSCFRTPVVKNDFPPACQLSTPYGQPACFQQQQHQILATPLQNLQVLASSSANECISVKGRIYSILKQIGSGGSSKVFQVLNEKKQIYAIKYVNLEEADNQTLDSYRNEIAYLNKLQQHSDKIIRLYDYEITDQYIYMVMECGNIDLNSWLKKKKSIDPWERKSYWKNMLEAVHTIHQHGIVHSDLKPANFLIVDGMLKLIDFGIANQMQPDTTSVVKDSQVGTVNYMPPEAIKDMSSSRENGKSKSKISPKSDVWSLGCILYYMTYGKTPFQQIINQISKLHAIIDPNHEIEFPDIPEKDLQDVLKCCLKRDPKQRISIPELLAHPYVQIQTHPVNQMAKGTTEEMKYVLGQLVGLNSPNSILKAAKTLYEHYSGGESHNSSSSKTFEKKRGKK
Put plainly: Mps-1 kinase assay (TR-FRET). To be noted: N-terminally GST-tagged human full length recombinant Mps-1; 10 μM ATP; 1 μM peptide substrate; 15 min pre-incubation; 60 min at 22° C. The assay is classed as biochemical. The procedure, abridged: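 TR-FRET read-out: after 1 h binding at 22° C, Eu-labelled anti-phospho-Ser/Thr antibody transfers to SA-XLent on the phosphorylated biotinylated peptide. The enzyme is GST-tagged full-length human Mps-1, typically about 1 nM final, in the linear range.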
As usually defined, the IC50 is the concentration that gives 50% inhibition. With `O=C(NC1CC1)c1ccc(-c2cnc3c(NCCSC(F)(F)F)nc(-c4ccccc4)cn23)cc1` [Example 2-83, N-cyclopropyl-4-[6-phenyl-8-({2-[(trifluoromethyl)sulfanyl]ethyl}amino)imidazo[1,2-a]pyrazin-3-yl]benzamide], the IC50 was determined as 5.4 nM. Regarding `CC(C)CNc1nc(-c2ccc(C(=O)N(C)C)cc2)cn2c(-c3ccc(C(=O)NC4CC4)cc3)cnc12` [Example 1-16, 4-{3-[4-(cyclopropyl-carbamoyl)phenyl]-8-[(2-methylpropyl)amino]imidazo[1,2-a]pyrazin-6-yl}-N,N-dimethyl-benzamide], the IC50 was 2.7 nM. With `O=C(NC1CC1)c1ccc(-c2cnc3c(NCc4ccccn4)nc(-c4ccccc4)cn23)cc1` [Example 2-27, N-cyclopropyl-4-{6-phenyl-8-[(pyridin-2-ylmethyl)amino]imidazo[1,2-a]pyrazin-3-yl} benzamide], the IC50 amounted to 3.3 nM. With `CC(C)CNc1nc(-c2cccc(NS(C)(=O)=O)c2)cn2c(-c3ccc(C(=O)NC4CC4)cc3)cnc12` [Example 1-15, N-cyclopropyl-4-(8-[(2-methylpropyl)amino]-6-{3-[(methylsulfonyl)amino]phenyl}imidazo [1,2-a]pyrazin-3-yl) benzamide], the IC50 amounted to 1.8 nM. For `COc1ccc2cc(-c3cn4c(-c5ccc(C(=O)NC6CC6)cc5)cnc4c(NCC(C)C)n3)ccc2c1` [Example 1-79, N-cyclopropyl-4-{6-(6-methoxynaphthalen-2-yl)-8-[(2-methylpropyl)amino]imidazo[1,2-a]pyrazin-3-yl}benzamide], the IC50 came to 32.7 nM. On to `N#CCCNc1nc(-c2ccccc2)cn2c(-c3ccc(C(=O)NC4CC4)cc3)cnc12` [Example 2-35, 4-{8-[(2-cyanoethyl)amino]-6-phenylimidazo[1,2-a]pyrazin-3-yl}-N-cyclopropyl-benzamide], for which the IC50 was 1 nM. `CC(C)(O)CNc1nc(-c2ccc(F)cc2)cn2c(-c3ccc(C(=O)NC4CC4)c(Cl)c3)cnc12` [Example 1-98, 2-chloro-N-cyclopropyl-4-{6-(4-fluorophenyl)-8-[(2-hydroxy-2-methyl-propyl)amino]imidazo [1,2-a]pyrazin-3-yl} benzamide]: the IC50 was determined as 12.9 nM. `O=C(NC1CC1)c1ccc(-c2cnc3c(NCc4ccc(Cl)s4)nc(-c4ccccc4)cn23)cc1` [Example 2-60, 4-(8-{[(5-chlorothiophen-2-yl)methyl]amino}-6-phenylimidazo [1,2-a]pyrazin-3-yl)-N-cyclopropylbenzamide]: the IC50 stood at 4.9 nM. On to `CC(C)CNc1nc(-c2ccccc2C(=O)N(C)C)cn2c(-c3ccc(C(=O)NC4CC4)cc3)cnc12` [Example 1-28, 2-{3-[4-(cyclopropyl-carbamoyl)phenyl]-8-[(2-methylpropyl)amino]imidazo[1,2-a]pyrazin-6-yl}-N,N-dimethyl-benzamide], for which the IC50 came out at 8.2 nM. In the case of `CC(C)CNc1nc(-c2ccc(C(C)(C)C)cc2)cn2c(-c3ccc(C(=O)NC4CC4)cc3)cnc12` [Example 1-50, 4-{6-(4-tert-butylphenyl)-8-[(2-methylpropyl)amino]imidazo[1,2-a]pyrazin-3-yl}-N-cyclo-propylbenzamide], the IC50 turned out to be 75.4 nM.

With `CC(C)CNc1nc(-c2ccc(C(=O)Nc3ccccc3)cc2)cn2c(-c3ccc(C(=O)NC4CC4)cc3)cnc12` [Example 1-53, 4-{3-[4-(cyclopropyl-carbamoyl)phenyl]-8-[(2-methylpropyl)amino]imidazo[1,2-a]pyrazin-6-yl}-N-phenylbenzamide], the IC50 is 2.1 nM. In the case of `CC(C)CNc1nc(-c2ccc(N3CCOCC3)cc2)cn2c(-c3ccc(C(=O)NC4CC4)cc3)cnc12` [Example 1-91, N-cyclopropyl-4-{8-[(2-methylpropyl)amino]-6-[4-(morpholin-4-yl)phenyl]imidazo[1,2-a]pyrazin-3-yl}benzamide], the half-inhibitory concentration (IC50) was 1.5 nM.
